# Values quoted from earlier work in US20070275941A1, “SALT SENSITIVITY AND PREVENTION OF HYPERTENSION WITH DROSPIRENONE” (priority 2006, published 2007).
# System: postmenopausal women with hypertension
compound,measurement,setting,value
C[C@]12CCC(=O)C=C1[C@@H]1C[C@@H]1[C@H]1[C@@H]3[C@@H]4C[C@@H]4[C@@]4(CCC(=O)O4)[C@@]3(C)CC[C@@H]12 [drospirenone],potassium sparing effect,clinical studies,demonstrated a potassium sparing effect
same,blood pressure reduction,"postmenopausal women with hypertension, alone or in combination with other agents",consistently and substantially reduce blood pressure
